Biological target: T1, human TRPV1 (Homo sapiens, UniProt Q8NER1)
T1 construct: expressed in transfected cells; host or cells: CHO-K1
Test: Measurement of capsaicin-induced Ca influx in human TRPV1 transformed CHO cell line using FDSS-6000
Format: cell-based
Conditions: concentration at which the capsaicin concentration-reaction curve is shifted two times to the right, human TRPV1 transformed CHO cells

T1 sequence (Q8NER1 whole entry): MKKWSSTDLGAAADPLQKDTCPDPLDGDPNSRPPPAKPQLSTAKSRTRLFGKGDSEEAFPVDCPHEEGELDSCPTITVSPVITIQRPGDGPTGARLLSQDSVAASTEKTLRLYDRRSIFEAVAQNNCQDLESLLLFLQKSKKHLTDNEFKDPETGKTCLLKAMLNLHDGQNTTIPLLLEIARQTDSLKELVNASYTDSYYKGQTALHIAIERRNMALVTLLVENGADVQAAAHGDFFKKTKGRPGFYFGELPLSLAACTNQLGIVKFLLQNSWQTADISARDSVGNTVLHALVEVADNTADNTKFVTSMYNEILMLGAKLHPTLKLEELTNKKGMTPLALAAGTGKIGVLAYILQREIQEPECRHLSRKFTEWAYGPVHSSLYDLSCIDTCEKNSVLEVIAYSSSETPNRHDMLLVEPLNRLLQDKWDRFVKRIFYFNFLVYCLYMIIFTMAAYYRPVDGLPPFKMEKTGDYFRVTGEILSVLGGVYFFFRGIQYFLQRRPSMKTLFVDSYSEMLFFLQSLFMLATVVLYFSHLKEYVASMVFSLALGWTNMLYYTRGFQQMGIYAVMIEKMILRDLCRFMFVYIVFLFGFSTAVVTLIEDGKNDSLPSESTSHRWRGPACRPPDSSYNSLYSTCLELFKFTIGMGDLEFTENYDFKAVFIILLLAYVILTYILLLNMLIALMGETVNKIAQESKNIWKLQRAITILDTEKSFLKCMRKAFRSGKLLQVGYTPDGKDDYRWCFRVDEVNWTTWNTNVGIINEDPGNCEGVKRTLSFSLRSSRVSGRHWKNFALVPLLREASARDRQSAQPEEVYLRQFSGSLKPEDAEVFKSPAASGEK

Row | Compound | A2 VALUE
1 | O=C(/C=C1\CCCOc2cc(C(F)(F)F)ccc21)Nc1nc(-c2ccccc2)cs1 [Example 47, (E)-2-(8-trifluoromethyl-3,4-dihydrobenzo[b]oxepin-5(2H)-ylidene)-N-(4-phenylthiazolo-2-yl)acetamide] | B (compounds having an A2 value of 100 nM or more are represented by B)
2 | CC(=O)N1CC/C(=C\C(=O)Nc2ccc3cccnc3c2)c2ccc(C(F)(F)F)cc21 [Example 48, (E)-2-(1-acetyl-7-trifluoromethyl-2,3-dihydroquinolin-4(1H)-ylidene)-N-(quinolin-7-yl)acetamide] | A (compounds of the present invention having an A2 value of less than 100 nM are represented by A)
3 | O=C(/C=C1\CCNc2cc(C(F)(F)F)ccc21)NC1CCc2cccnc2C1 (stereo not shown) [Example 49, (E)-2-(7-trifluoromethyl-2,3-dihydroquinolin-4(1H)-ylidene)-N-(5,6,7,8-tetrahydroquinolin-7-yl)acetamide] | B (compounds having an A2 value of 100 nM or more are represented by B)
4 | CCCCC(=O)N1CC/C(=C\C(=O)Nc2ccc3cccnc3c2)c2ccc(C(F)(F)F)cc21 [Example 50, (E)-2-(7-trifluoromethyl-2,3-dihydro-1-pentanoylquinolin-4(1H)-ylidene)-N-(quinolin-7-yl)acetamide] | A (compounds of the present invention having an A2 value of less than 100 nM are represented by A)
5 | CCC(CC)C(=O)N1CC/C(=C\C(=O)Nc2ccc3cccnc3c2)c2ccc(C(F)(F)F)cc21 [Example 51, (E)-2-(1-(2-ethylbutanoyl)-7-trifluoromethyl-2,3-dihydroquinolin-4(1H)-ylidene)-N-(quinolin-7-yl)acetamide] | A (compounds of the present invention having an A2 value of less than 100 nM are represented by A)
6 | O=C(/C=C1\CCN(C(=O)C2CCCCC2)c2cc(C(F)(F)F)ccc21)Nc1ccc2cccnc2c1 [Example 52, (E)-2-(7-trifluoromethyl-2,3-dihydro-1-cyclohexanecarbonylquinolin-4(1H)-ylidene)-N-(quinolin-7-yl)acetamide] | A (compounds of the present invention having an A2 value of less than 100 nM are represented by A)
7 | O=C(/C=C1\CCN(C(=O)C2CCOCC2)c2cc(C(F)(F)F)ccc21)Nc1ccc2cccnc2c1 [Example 53, (E)-2-(7-trifluoromethyl-2,3-dihydro-1-(4-pyranoyl)quinolin-4(1H)-ylidene)-N-(quinolin-7-yl)acetamide] | A (compounds of the present invention having an A2 value of less than 100 nM are represented by A)
8 | O=C(/C=C1\CCN(C(=O)c2ccccc2)c2cc(C(F)(F)F)ccc21)Nc1ccc2cccnc2c1 [Example 54, (E)-2-(7-trifluoromethyl-2,3-dihydro-1-benzoylquinolin-4(1H)-ylidene)-N-(quinolin-7-yl)acetamide] | A (compounds of the present invention having an A2 value of less than 100 nM are represented by A)
9 | O=C(/C=C1\CCN(C(=O)c2cccnc2)c2cc(C(F)(F)F)ccc21)Nc1ccc2cccnc2c1 [Example 55, (E)-2-(7-trifluoromethyl-2,3-dihydro-1-nicotinoylquinolin-4(1H)-ylidene)-N-(quinolin-7-yl)acetamide] | A (compounds of the present invention having an A2 value of less than 100 nM are represented by A)
10 | O=C(/C=C1\CCN(c2ccc(Cl)cc2)c2cc(C(F)(F)F)ccc21)NC1CCc2cccnc2C1 (stereo not shown) [Example 56, (E)-2-(1-(4-chlorophenyl)-7-trifluoromethyl-2,3-dihydro-4(1H)-ylidene)-N-(5,6,7,8-tetrahydroquinolin-7-yl)acetamide] | A (compounds of the present invention having an A2 value of less than 100 nM are represented by A)
11 | O=C(/C=C1\CCN(c2ccc(Cl)cc2)c2cc(C(F)(F)F)ccc21)Nc1ccc2cccnc2c1 [Example 57, (E)-2-(1-(4-chlorophenyl)-7-trifluoromethyl-2,3-dihydro-4(1H)-ylidene)-N-(quinolin-7-yl)acetamide] | A (compounds of the present invention having an A2 value of less than 100 nM are represented by A)
12 | O=C(/C=C1\CCN(c2cccnc2)c2cc(C(F)(F)F)ccc21)Nc1ccc2cccnc2c1 [Example 58, (E)-2-(7-trifluoromethyl-2,3-dihydro-1-(pyridin-3-yl)quinolin-4(1H)-ylidene)-N-(quinolin-7-yl)acetamide] | A (compounds of the present invention having an A2 value of less than 100 nM are represented by A)
13 | O=C(/C=C1\CCCOc2cc(C(F)(F)F)ccc21)Nc1ccc2sc(CO)nc2c1 [Example 59, (E)-2-(8-trifluoromethyl-3,4-dihydrobenzo[b]oxepin-5(2H)-ylidene)-N-(2-hydroxymethyl-1,3-benzothiazolo-5-yl)acetamide] | A (compounds of the present invention having an A2 value of less than 100 nM are represented by A)
14 | O=C(/C=C1\CCCOc2cc(C(F)(F)F)ccc21)Nc1ccccc1CCO [Example 60, (E)-2-(8-trifluoromethyl-3,4-dihydrobenzo[b]oxepin-5(2H)-ylidene)-N-((2-hydroxyethyl)phenyl-1-yl)acetamide] | A (compounds of the present invention having an A2 value of less than 100 nM are represented by A)
15 | O=C1CCc2cccc(NC(=O)/C=C3\CCCOc4cc(C(F)(F)F)ccc43)c2C1 [Example 61, (E)-2-(8-trifluoromethyl-3,4-dihydrobenzo[b]oxepin-5(2H)-ylidene)-N-(7-oxo-5,6,7,8-tetrahydronaphthalen-1-yl)acetamide] | A (compounds of the present invention having an A2 value of less than 100 nM are represented by A)
16 | O=C(/C=C1\CCCOc2cc(C(F)(F)F)ccc21)Nc1cccc2c1CC(O)CC2 (stereo not shown) [Example 62, (E)-2-(8-trifluoromethyl-3,4-dihydrobenzo[b]oxepin-5-(2H)-ylidene)-N-(7-hydroxy-5,6,7,8-tetrahydronaphthalen-1-yl)acetamide] | A (compounds of the present invention having an A2 value of less than 100 nM are represented by A)
17 | O=C(/C=C1\CCCOc2cc(C(F)(F)F)ccc21)Nc1cccc2c1CC(O)CC2 (stereo not shown) [Example 63, (E)-2-(8-trifluoromethyl-3,4-dihydrobenzo[b]oxepin-5-(2H)-ylidene)-N-(7-hydroxy-5,6,7,8-tetrahydronaphthalen-1-yl)acetamide] | A (compounds of the present invention having an A2 value of less than 100 nM are represented by A)
18 | O=C(/C=C1\CCCOc2cc(C(F)(F)F)ccc21)Nc1cccc2c1CC(O)CC2 (stereo not shown) [Example 64, (E)-2-(8-trifluoromethyl-3,4-dihydrobenzo[b]oxepin-5-(2H)-ylidene)-N-(7-hydroxy-5,6,7,8-tetrahydronaphthalen-1-yl)acetamide] | A (compounds of the present invention having an A2 value of less than 100 nM are represented by A)
19 | O=C(/C=C1\CCCOc2cc(C(F)(F)F)ccc21)Nc1cccc2c1CC(O)C(O)C2 (stereo not drawn) [Example 65, (E)-2-(8-trifluoromethyl-3,4-dihydrobenzo[b]oxepin-5-(2H)-ylidene)-N-(trans-6,7-dihydroxy-5,6,7,8-tetrahydronaphthalen-1-yl)acetamide] | A (compounds of the present invention having an A2 value of less than 100 nM are represented by A)
